Literature values as cited in US20250361307A1, “COMBINATION THERAPIES FOR TREATING HYPERPROLIFERATIVE DISORDERS” (X4 Pharmaceuticals, Inc., priority 2022, published 2025).

How the values were obtained:
[1] = target: BCL-2 (Homo sapiens, UniProt P10415); settings: cited from earlier work
[2] = target: BCL-XL (Homo sapiens, UniProt Q07817); settings: cited from earlier work
[3] = target: T1, BCL-w (Homo sapiens, UniProt Q92843); settings: cited from earlier work
T1 sequence (Q92843 1-193): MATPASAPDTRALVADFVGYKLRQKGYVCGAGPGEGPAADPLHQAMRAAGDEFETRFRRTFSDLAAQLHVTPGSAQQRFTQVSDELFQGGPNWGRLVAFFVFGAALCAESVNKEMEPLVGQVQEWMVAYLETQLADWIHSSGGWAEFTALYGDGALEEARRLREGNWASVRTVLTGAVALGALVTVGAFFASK

[4] = target: T2, A1 (Homo sapiens, UniProt Q16548); settings: cited from earlier work
T2 sequence (Q16548 1-175): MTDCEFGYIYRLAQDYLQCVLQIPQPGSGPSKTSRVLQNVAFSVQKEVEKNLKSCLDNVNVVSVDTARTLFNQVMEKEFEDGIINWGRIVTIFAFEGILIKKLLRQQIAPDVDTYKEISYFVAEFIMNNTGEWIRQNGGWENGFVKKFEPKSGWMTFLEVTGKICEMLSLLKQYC

[5] = target: MCL-1 (Homo sapiens, UniProt Q07820); settings: cited from earlier work
Sequence of MCL-1 (Q07820 whole entry): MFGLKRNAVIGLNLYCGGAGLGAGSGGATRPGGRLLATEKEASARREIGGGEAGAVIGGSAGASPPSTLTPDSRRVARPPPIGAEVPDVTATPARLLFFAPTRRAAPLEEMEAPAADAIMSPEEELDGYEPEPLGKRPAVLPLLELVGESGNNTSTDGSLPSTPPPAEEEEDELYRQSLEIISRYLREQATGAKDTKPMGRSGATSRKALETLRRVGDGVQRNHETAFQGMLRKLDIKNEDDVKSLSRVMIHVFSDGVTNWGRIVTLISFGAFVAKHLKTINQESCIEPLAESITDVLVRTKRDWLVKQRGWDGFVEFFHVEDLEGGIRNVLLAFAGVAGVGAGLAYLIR

[6] = system: small-cell lung cancer and hematologic cell lines; settings: in vivo; cited from earlier work
[7] = system: platelets; settings: cited from earlier work

Sequence of BCL-2 (P10415 whole entry): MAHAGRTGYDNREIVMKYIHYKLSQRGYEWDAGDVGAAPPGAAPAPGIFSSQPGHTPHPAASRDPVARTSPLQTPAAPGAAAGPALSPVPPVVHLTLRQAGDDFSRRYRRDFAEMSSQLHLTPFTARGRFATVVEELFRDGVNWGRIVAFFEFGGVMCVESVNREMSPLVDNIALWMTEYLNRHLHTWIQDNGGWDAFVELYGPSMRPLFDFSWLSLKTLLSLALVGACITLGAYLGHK
Sequence of BCL-XL (Q07817 whole entry): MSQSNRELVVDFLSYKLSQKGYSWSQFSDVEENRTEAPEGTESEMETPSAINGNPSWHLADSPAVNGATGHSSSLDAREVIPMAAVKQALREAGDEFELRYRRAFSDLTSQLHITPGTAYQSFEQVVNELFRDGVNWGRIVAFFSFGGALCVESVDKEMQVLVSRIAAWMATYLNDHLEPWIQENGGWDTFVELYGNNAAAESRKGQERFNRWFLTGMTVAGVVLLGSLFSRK

Question: With `CC1(C)CCC(c2ccc(Cl)cc2)=C(CN2CCN(c3ccc(C(=O)NS(=O)(=O)c4ccc(N[C@H](CCN5CCOCC5)CSc5ccccc5)c(S(=O)(=O)C(F)(F)F)c4)cc3)CC2)C1` [navitoclax] as the compound, how does the “interaction with BCL-2” value [1] read?
Answer: high affinity

Question: What about the “interaction with BCL-XL” value [2] of the same compound?
Answer: high affinity

Question: And the “interaction with BCL-w” value [3]?
Answer: high affinity

Question: And the “activity against A1” value [4]?
Answer: no activity

Question: What about the “activity against MCL-1” value [5] of the same compound?
Answer: no activity

Question: And the tumor responses [6]?
Answer: rapid and complete tumor responses

Question: Which platelet numbers [7] does the source give for `CC1(C)CCC(CN2CCN(c3ccc(C(=O)NS(=O)(=O)c4ccc(NCC5CCOCC5)c([N+](=O)[O-])c4)c(Oc4cnc5[nH]ccc5c4)c3)CC2)=C(c2ccc(Cl)cc2)C1` [venetoclax] here?
Answer: little effect
